Patent US9493411B2 (AbbVie Inc., priority 2013, dated 2016)

Experiments:
BRD4 (BDII_E352-M457) = target: T1, BRD4 (BDII_E352-M457) (Homo sapiens, UniProt O60885); test: TR-FRET bromodomain binding assay, BRD4 second bromodomain; conditions: His-tagged BD2, Alexa647-labeled probe 30 nM; Ki calculated from IC50
T1 construct: made in house
Method: (§1) A time-resolved fluorescence resonance energy transfer (TR-FRET) assay was used to determine the affinities of compounds of the Examples listed in Table 1 for each bromodomain of BRD4. His-tagged first (BD1: amino acids K57-E168) and second (BD2: amino acids E352-E168) bromodomains of BRD4 were expressed and purified. An Alexa647-labeled BET-inhibitor was used as the fluorescent probe in the assay.
(§2) Compound dilution series were prepared in DMSO via a 3-fold serial dilution from 2.5 mM to 42 nM. Compounds were then diluted 6:100 in assay buffer (20 mM Sodium Phosphate, pH 6.0, 50 mM NaCl, 1 mM Ethylenediaminetetraacetic acid disodium salt dihydrate, 0.01% Triton X-100, 1 mM DL-Dithiothreitol) to yield 3× working solutions. Six microliters (μL) of the working solution was then transferred to white, low-volume assay plates (Costar #3673). A 1.5× assay mixture containing His-tagged bromodomain, Europium-conjugated anti-His antibody (Invitrogen PV5596) and the Alexa-647-conjugated probe molecule was also prepared. Twelve μL of this solution were added to the assay plate to reach a final volume of 18 μL. The final concentration of 1× assay buffer contains 2% DMSO, 50 μM-0.85 nM compound, 8 nM His-tagged bromodomain, 1 nM Europium-conjugated anti-His-tag antibody and 100 nM or 30 nM probe (for BDI or BDII, respectively). After a one-hour incubation at room temperature, TR-FRET ratios were determined using an Envision multilabel plate reader (Ex 340, Em […]).
(§3) TR-FRET data were normalized to the means of 24 no-compound controls (“high”) and 8 controls containing 1 μM un-labeled probe (“low”). Percent inhibition was plotted as a function of compound concentration and the data were fit with the 4 parameter logistic equation to obtain IC50s. Inhibition constants (Ki) were calculated from the IC50s, probe Kd and probe concentration. Typical Z′ values were between 0.65 and 0.75. The minimum significant ratio was determined to evaluate assay reproducibility (Eastwood et al., (2006) J Biomol Screen, 11: 253-261). The MSR was determined to be 2.03 for BDI and 1.93 for BDII, and a moving MSR (last six run MSR overtime) for both BDI and BDII was typically <3.

BRD4 (BDI_K57-E168) = target: T2, BRD4 (BDI_K57-E168) (Homo sapiens, UniProt O60885); test: TR-FRET bromodomain binding assay, BRD4 first bromodomain; conditions: His-tagged BD1, Alexa647-labeled probe 100 nM; Ki calculated from IC50
T2 construct: BD1: amino acids K57-E168; made in house
Method: as §1, §2, §3

Compound	Ki (BRD4 (BDII_E352-M457)) [µM]	Ki (BRD4 (BDI_K57-E168)) [µM]
Cc1[nH]c(-c2ccccc2NCc2ccc(C#N)cc2)cc1C(N)=O [Example 31, 5-{2-[(4-cyanobenzyl)amino]phenyl}-2-methyl-1H-pyrrole-3-carboxamide]	6.23	1.4
Cc1[nH]c(-c2ccccc2NC2CCCCCC2)cc1C(N)=O [Example 73, 5-[2-(cycloheptylamino)phenyl]-2-methyl-1H-pyrrole-3-carboxamide]	3.83	0.862
COc1ccc(CN(CC2CCCC2)c2ccccc2-c2cc(C(N)=O)c(C)[nH]2)cc1 [Example 61, 5-{2-[(cyclopentylmethyl)(4-methoxybenzyl)amino]phenyl}-2-methyl-1H-pyrrole-3-carboxamide]	–	8.28
CC(=O)Nc1cccc(-c2cc(C(N)=O)c(C)[nH]2)c1 [Example 5, 5-[3-(acetylamino)phenyl]-2-methyl-1H-pyrrole-3-carboxamide]	6.43	8.09
Cc1[nH]c(-c2cccc(N)c2)cc1C(N)=O [Example 4, 5-(3-aminophenyl)-2-methyl-1H-pyrrole-3-carboxamide]	4.44	5.19
Cc1[nH]c(-c2ccccc2NS(=O)(=O)c2ccc(O)cc2)cc1C(N)=O [Example 88, 5-(2-{[(4-hydroxyphenyl)sulfonyl]amino}phenyl)-2-methyl-1H-pyrrole-3-carboxamide]	–	8.48
Cc1[nH]c(-c2cccc(/C=C/c3ccccc3)c2)cc1C(N)=O [Example 157, 2-methyl-5-{3-[(E)-2-phenylethenyl]phenyl}-1H-pyrrole-3-carboxamide]	–	7.41
Cc1[nH]c(-c2ccccc2Oc2ccc(S(C)(=O)=O)cc2)cc1C(N)=O [Example 132, 2-methyl-5-{2-[4-(methylsulfonyl)phenoxy]phenyl}-1H-pyrrole-3-carboxamide]	–	10.9
Cc1[nH]c(-c2ccccc2NC2CCNC2)cc1C(N)=O (stereo not shown) [Example 64, 2-methyl-5-[2-(pyrrolidin-3-ylamino)phenyl]-1H-pyrrole-3-carboxamide]	–	1.04
COc1cccc(-c2cccc(-c3cc(C(N)=O)c(C)[nH]3)c2)c1 [Example 151, 5-(3′-methoxybiphenyl-3-yl)-2-methyl-1H-pyrrole-3-carboxamide]	–	10.4
Cc1[nH]c(-c2ccccc2NS(=O)(=O)c2ccc(F)cc2F)cc1C(N)=O [Example 84, 5-(2-{[(2,4-difluorophenyl)sulfonyl]amino}-phenyl)-2-methyl-1H-pyrrole-3-carboxamide]	–	10.6
Cc1[nH]c(-c2ccccc2NC2CN3CCC2CC3)cc1C(N)=O (stereo not shown) [Example 71, 5-[2-(1-azabicyclo[2.2.2]oct-3-ylamino)phenyl]-2-methyl-1H-pyrrole-3-carboxamide]	–	0.628
Cc1[nH]c(-c2cccc(Oc3ccc4c(c3)OCO4)c2)cc1C(N)=O [Example 160, 5-[3-(1,3-benzodioxol-5-yloxy)phenyl]-2-methyl-1H-pyrrole-3-carboxamide]	–	11.5
Cc1[nH]c(-c2ccccc2NCc2ccc(NC(=O)OC(C)(C)C)cc2)cc1C(N)=O [Example 50, tert-butyl [4-({[2-(4-carbamoyl-5-methyl-1H-pyrrol-2-yl)phenyl]amino}methyl)phenyl]carbamate]	–	5.04
Cc1[nH]c(-c2ccccc2NS(=O)(=O)c2ccc(Cl)cc2)cc1C(N)=O [Example 81, 5-(2-{[(4-chlorophenyl)sulfonyl]amino}phenyl)-2-methyl-1H-pyrrole-3-carboxamide]	–	9.29
Cc1[nH]c(-c2ccccc2-n2ccc(=O)cc2)cc1C(N)=O [Example 120]	–	4.41
CC(=O)n1cc(CN(CC2CCCC2)c2ccccc2-c2cc(C(N)=O)c(C)[nH]2)c2ccccc21 [Example 58, 5-(2-{[(1-acetyl-1H-indol-3-yl)methyl](cyclopentylmethyl)amino}phenyl)-2-methyl-1H-pyrrole-3-carboxamide]	–	4.68
Cc1[nH]c(-c2ccccc2NCc2cccc(NC(=O)OC(C)(C)C)c2)cc1C(N)=O [Example 51, tert-butyl [3-({[2-(4-carbamoyl-5-methyl-1H-pyrrol-2-yl)phenyl]amino}methyl)phenyl]carbamate]	–	6.7
